The text below walks through data of patent publication US8198279B2, “Pyrido[2,3-b]pyrazin-8-substituted compounds and their use” (Institute of Cancer Research: Royal Cancer Hospital (The), priority 2007, dated 2012).

One may read the IC50 as the concentration that inhibits the measured activity by half. A low value points to inhibition by little substance. In general, GI50 refers to the concentration at which growth is held to half of that of the control.

Structures are written as SMILES. “And” between values parts separate entries of the source, which are not always exact repeats. Equal entries are not always repeated.

One experiment concerns the target T1, B-RAF (Homo sapiens, UniProt P15056, V600E).
T1 construct: made in house
Kind of experiment: DELFIA Kinase Assay. The format is biochemical. The following applies: 100 μM ATP, GST-MEK substrate. How it is done: Biological Methods—DELFIA Kinase Assay
Compounds were assessed by a kinase assay performed according to the following protocol.
DKB1 (DKB with B-RAF and MEK Protein):
Combine 4950 μL of DKB and 50 μL of 2.5 mg/ml GST-MEK stock (to give […] of MEK per 40 μL). Then add 22.5 μL of B-RAF to give ˜0.2 μL of B-RAF per 40 μL.
100 mM stock, dilute to 500 μM to give 100 μM final concentration in assay.
• 1. Preblock wells with 5% milk in TBS for 1 hour. • 2. Wash wells with 3× with 200 μL TBS. • 3. Plate out 40 μL of DKB1 for all inhibitors (test compounds), DMSO control, and optionally other control compounds. • 4. Plate out 40 μL of DKB2 for BO and EV wells. • 5. Add inhibitors (test compounds) at 0.5 μL per well according to desired plate layout. • 6. Add 0.5 μL DMSO to vehicle control wells. • 7. Add 2 μL of B-RAF to BO and EV wells. • 8. Pre-incubate with inhibitors (test compounds) for 10 minutes at room temperature with shaking. • 9. Add 10 μL of 500 μM ATP stock, in DKB, to give 100 μM assay concentration. • 10. Seal plates with TopSeal and incubate at room temperature with shaking for 45 minutes. • 11. Wash plates 3× with 200 μL 0.1% Tween20/Water to terminate reaction. • 12. Add 50 μL per well of antibody mix and incubate for 1 hour at room temperature with shaking. • 13. Wash plates 3× with 200 μL 0.1% Tween20/Water. • 14. Add 100 μL DELFIA enhancement solution per well, cover in foil, and incubate at room temperature for 30 minutes with shaking. • 15. Read on Victor using Europium protocol.
Values for the blank (Empty Vector) are subtracted from all values. The DMSO controls are set as 100% activity and assay points (the response) are calculated as a percentage of the DMSO control. Data are plotted using Graphpad Prism software and a non-linear regression line is calculated using a variable slope sigmoidal dose-response equation (Y=Bottom+(Top−Bottom)/(1+10^((LogEC50−X)*HillSlope)) where X is the logarithm of concentration. Y is the response). The IC50 generated by this procedure is the concentration of the drug that produces a percentage control fluorescence value midway between the saturation, and zero-effect plateaus. Three independent assays are usually performed and the mean IC50 is reported.

Another experiment relates to WM266.4 melanoma cells. The experiment in a line: SRB Cell Proliferation Assay (SRB GI50). The format is cell-based. The following applies: Homo sapiens, WM 266-4, 144 h, 6 days growth. How it is done: Biological Methods —SRB Cell Proliferation Assay (SRB GI50)
Cultures of WM266.4 melanoma cells are routinely cultured in DMEM/10% foetal bovine serum, at 37° C., in 5% CO2 water saturated atmosphere. Cultures are maintained in exponential growth phase by sub-culturing before having become confluent (3-5 day intervals). Single cell suspensions are prepared by harvesting an 80 cm^2 tissue culture flask with 5 mL commercial trypsin EDTA. After 5 minutes, the detached cells are mixed with 5 mL fully complemented culture medium and centrifugally pelleted (1000 rpm for 7 minutes). After aspirating the supernatant, the cell pellet is re-suspended in 10 mL fresh medium and the cells fully disaggregated by drawing the whole volume up/down 5 times through a 19-gauge needle. The concentration of the cells is determined using a haemocytometer (1/10 dilution). A suitable volume to give at least a 2-fold excess for the number of tests being conducted, typically 100-200 mL, is prepared by diluting the cell suspension to 10,000/mL, and 100 μL/well dispensed into 96 well plates using a programmable 8-channel peristaltic pump, giving 1000 cells/well, leaving column 12 blank. The plates are returned to the incubator for 24 hours to allow the cells to re-attach.
The compounds being tested are prepared at 20 mM in dimethylsulphoxide. Aliquots (200 μL) are diluted into 20 mL culture medium giving 200 μM, and 10 serial dilutions of 3× performed by transferring 5 mL to 10 mL. Aliquots (100 μL) of each dilution are added to the wells, using an 8-channel pipettor, thus performing a final further 2× dilution, and giving doses ranging from 100 μM to 0.005 μM. Column 11 receives plain culture medium only. Each compound is tested in quadruplicate, each replicate being the average of four wells, and two plates per compound.
After a further 6 days growth, the plates are emptied, and the cells are fixed in 10% trichloroacteic acid for 10 minutes on ice. After thorough rinsing in running tap water, the plates are dried, and stained by adding 50 μL of a solution of 0.1% sulphorhodamine-B in 1% acetic acid, for 10 minutes at room temperature. The stain is poured out and the plates thoroughly rinsed under a stream of 1% acetic acid, thus removing unbound stain, and dried. The bound stain is taken into solution by addition of 150 μL Tris buffer pH 8, followed by 10 minutes on a plate-shaker (approximately 500 rpm). The absorbance at 540 nm in each well (being proportional to the number of cells present) is determined using a plate reader.
After averaging the results in rows A-D and E-H, the blank value (row 12) is subtracted, and results expressed as percentage of the untreated value (row 11). […] The GI50 generated by this procedure is the concentration of the drug that produces a percentage control A540 midway between the saturation, and zero-effect plateaus.

T1 sequence (P15056 whole entry V600E): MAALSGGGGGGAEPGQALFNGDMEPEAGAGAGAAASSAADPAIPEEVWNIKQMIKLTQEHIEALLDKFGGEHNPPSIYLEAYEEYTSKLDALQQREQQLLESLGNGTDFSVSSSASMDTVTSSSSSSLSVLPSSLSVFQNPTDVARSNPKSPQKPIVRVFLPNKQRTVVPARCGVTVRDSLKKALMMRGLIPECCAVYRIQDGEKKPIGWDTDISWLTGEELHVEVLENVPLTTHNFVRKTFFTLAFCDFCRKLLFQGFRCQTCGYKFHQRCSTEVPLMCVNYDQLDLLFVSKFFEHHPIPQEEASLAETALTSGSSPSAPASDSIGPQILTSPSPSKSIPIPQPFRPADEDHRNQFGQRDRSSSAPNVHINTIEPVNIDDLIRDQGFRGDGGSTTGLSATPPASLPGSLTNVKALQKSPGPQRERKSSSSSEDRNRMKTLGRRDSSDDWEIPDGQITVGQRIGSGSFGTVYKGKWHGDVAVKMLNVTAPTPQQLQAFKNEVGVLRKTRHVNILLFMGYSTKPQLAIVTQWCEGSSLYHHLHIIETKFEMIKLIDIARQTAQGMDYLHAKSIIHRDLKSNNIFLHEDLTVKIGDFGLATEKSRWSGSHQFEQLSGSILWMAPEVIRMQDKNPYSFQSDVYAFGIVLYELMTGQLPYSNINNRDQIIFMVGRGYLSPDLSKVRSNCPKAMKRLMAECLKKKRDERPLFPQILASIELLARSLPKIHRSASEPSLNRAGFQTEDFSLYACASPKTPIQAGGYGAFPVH

Regarding `O=C(Nc1ccc(Cl)c(C(F)(F)F)c1)Nc1ccc(Oc2ccnc3ncc(=O)[nH]c23)c2ccccc12` [AA-037, 1-(4-chloro-3-(trifluoromethyl)phenyl)-3-(4-(1-oxo-1,2-dihydropyrido[2,3-b]pyrazin-8-yloxy)naphthalen-1-yl)urea], at B-RAF, the IC50 is < 1000 nM and 100 to 1000 nM. Moreover, the GI50 in the experiment on WM266.4 melanoma cells is below 10000 nM.

Turning to `O=C(Nc1cc(C(F)(F)F)ccc1F)Nc1ccc(Oc2ccnc3[nH]c(=O)cnc23)c2ccccc12` [AA-012, 1-(2-fluoro-5-(trifluoromethyl)phenyl)-3-(4-(3-oxo-3,4-dihydropyrido[2,3-b]pyrazin-8-yloxy)naphthalen-1-yl)urea], the half-inhibitory concentration (IC50) against B-RAF is < 1000 nM and 100 to 1000 nM. The compound also registered a GI50 in the experiment on WM266.4 melanoma cells of 1000 to 10000 nM.

The compound `CN(C)c1cnc2c(Oc3ccc(NC(=O)Nc4cc(C(F)(F)F)ccc4F)c(F)c3)ccnc2n1` [AA-068, 1-(4-(3-(dimethylamino)pyrido[3,2-b]pyrazin-8-yloxy)-2-fluorophenyl)-3-(2-fluoro-5-(trifluoromethyl)phenyl)urea] gave a 50% inhibitory concentration (IC50) against B-RAF of 100 to 1000 nM. The compound also displayed a GI50 in the experiment on WM266.4 melanoma cells of 1000 to 10000 nM.

Compound `O=C(Nc1cccc(Oc2ccnc3[nH]c(=O)cnc23)c1)Nc1cc(C(F)(F)F)ccc1F` [AA-007, 1-(2-fluoro-5-(trifluoromethyl)phenyl)-3-(3-(3-oxo-3,4-dihydropyrido[2,3-b]pyrazin-8-yloxy)phenyl)urea] showed an IC50 against B-RAF below 100 nM. The GI50 in the experiment with WM266.4 melanoma cells lay in the range of 1000 to 10000 nM.

For `CN1CCN(c2cnc3c(Oc4ccc(NC(=O)Nc5cc(C(C)(C)C)nn5-c5ccccc5)c(F)c4)ccnc3n2)CC1` [AA-053, 1-(3-Tert-butyl-1-phenyl-1H-pyrazol-5-yl)-3-(2-fluoro-4-(3-(4-methylpiperazin-1-yl)pyrido[2,3-b]pyrazin-8-yloxy)phenyl)urea], the IC50 at B-RAF was < 1000 nM and 100 to 1000 nM.

`CSc1cc(Oc2ccnc3[nH]c(=O)cnc23)ccc1NC(=O)Nc1ccc(Cl)c(C(F)(F)F)c1` [AA-023] displayed an IC50 at B-RAF below 100 nM.

Consider `Cc1nc2nccc(Oc3ccc(NC(=O)Nc4cc(C(F)(F)F)ccc4F)c4ccccc34)c2[nH]c1=O` [AA-039, 1-(2-fluoro-5-(trifluoromethyl)phenyl)-3-(4-(3-methyl-2-oxo-1,2-dihydropyrido[2,3-b]pyrazin-8-yloxy)naphthalen-1-yl)urea], for which the IC50 on B-RAF is < 1000 nM and 100 to 1000 nM.

Take `Cc1ccc(-n2nc(C(C)(C)C)cc2NC(=O)Nc2cccc(Oc3ccnc4[nH]c(=O)cnc34)c2)cc1` [AA-006, 1-(3-tert-butyl-1-p-tolyl-1H-pyrazol-5-yl)-3-(3-(3-oxo-3,4-dihydropyrido[2,3-b]pyrazin-8-yloxy)phenyl)urea]: the IC50 against B-RAF was below 100 nM.

Take `O=C(Nc1ccc(Sc2ccnc3[nH]c(=O)cnc23)cc1)Nc1cc(C(F)(F)F)ccc1F` [AA-027, 1-(2-Fluoro-5-(trifluoromethyl)phenyl)-3-(4-(3-oxo-3,4-dihydropyrido[2,3-b]pyrazin-8-ylthio)phenyl)urea]: the IC50 at B-RAF is below 100 nM.

Consider `O=C(Nc1ccc(Cl)c(C(F)(F)F)c1)Nc1ccc(Oc2ccnc3ncc(=O)[nH]c23)cc1F` [AA-048, 1-(4-Chloro-3-(trifluoromethyl)phenyl)-3-(2-fluoro-4-(2-oxo-1,2-dihydropyrido[2,3-b]pyrazin-8-yloxy)phenyl)urea], for which the IC50 against B-RAF is below 100 nM.

Consider `CC(C)(C)c1cc(NC(=O)Nc2ccc(Oc3ccnc4[nH]c(=O)cnc34)c3ccccc23)n(-c2ccccc2)n1` [AA-008, 1-(3-tert-butyl-1-phenyl-1H-pyrazol-5-yl)-3-(4-(3-oxo-3,4-dihydropyrido[2,3-b]pyrazin-8-yloxy)naphthalen-1-yl)urea], for which, on B-RAF, the IC50 was below 100 nM.

As for `CNc1cnc2c(Oc3ccc(NC(=O)Nc4cc(C(F)(F)F)ccc4F)c(F)c3)ccnc2n1` [AA-055, 1-(2-fluoro-4-(3-(methylamino)pyrido[3,2-b]pyrazin-8-yloxy)phenyl)-3-(2-fluoro-5-(trifluoromethyl)phenyl)urea], on B-RAF, the IC50 is < 1000 nM and 100 to 1000 nM. Moreover, in the experiment with WM266.4 melanoma cells, the GI50 is 1000 to 10000 nM.

Compound `O=C(Nc1cc(C(F)(F)F)ccc1F)Nc1ccc(Oc2ccnc3[nH]c(=O)c(C(F)(F)F)nc23)c2ccccc12` [AA-082, 1-(2-fluoro-5-(trifluoromethyl)phenyl)-3-(4-(3-oxo-2-(trifluoromethyl)-3,4-dihydropyrido[2,3-b]pyrazin-8-yloxy)naphthalen-1-yl)urea] gave a half-inhibitory concentration (IC50) at B-RAF of 100 to 1000 nM.

Regarding `Cc1ccc(-n2nc(C(C)(C)C)cc2NC(=O)Nc2ccc(Oc3ccnc4[nH]c(=O)cnc34)c3ccccc23)cc1` [AA-010, 1-(3-tert-butyl-1-p-tolyl-1H-pyrazol-5-yl)-3-(4-(3-oxo-3,4-dihydropyrido[2,3-b]pyrazin-8-yloxy)naphthalen-1-yl)urea], the IC50 at B-RAF was below 100 nM.
